The inhibition is the drop in the measured response relative to a control, in per cent.

This assay addresses T1, human MAGL (His-hMAGL) (Homo sapiens, UniProt Q99685).
T1 construct: made in house; host or cells: Escherichia coli BL21(DE3)
T1 sequence (Q99685 1-303): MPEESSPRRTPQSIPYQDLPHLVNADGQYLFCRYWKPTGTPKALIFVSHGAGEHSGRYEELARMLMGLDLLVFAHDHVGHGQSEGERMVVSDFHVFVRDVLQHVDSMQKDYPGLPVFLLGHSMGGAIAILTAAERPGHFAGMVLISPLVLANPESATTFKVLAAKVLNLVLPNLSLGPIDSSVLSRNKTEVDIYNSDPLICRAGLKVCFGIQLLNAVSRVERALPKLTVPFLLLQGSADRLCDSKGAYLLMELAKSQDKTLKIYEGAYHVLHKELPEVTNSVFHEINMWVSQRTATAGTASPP
Kind of assay: Measurement of MAGL inhibitory activity by mass spectrometry. The settings on record: MAGL inhibitory rate, test compound 10 μM, His-hMAGL, substrate 2-arachidonylglycerol, RapidFire-mass spectrometry. The format is biochemical. Summed up: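 His-tagged human MAGL was reacted with 150 μM 2-arachidonylglycerol substrate (stock, added by 5 μL) for 10 min at room temperature, then stopped with formic acid. Arachidonic acid product was quantified by RapidFire–triple-quadrupole MS in negative SRM mode, corrected by arachidonic acid-d8, and converted to percent inhibition.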
As to `Cc1cncc(-c2cccc(N3CC(N4CCN(C(=O)c5nccs5)CC4)CC3=O)c2)c1` (centres unmarked) [Example 206, 1-(3-(5-methylpyridin-3-yl)phenyl)-4-(4-(1,3-thiazol-2-ylcarbonyl)piperazin-1-yl)pyrrolidin-2-one], the inhibition at 10 µM is 98%.

As to `O=C(c1nccs1)N1CCN(C2CC(=O)N(c3ccc(-c4ccco4)cc3)C2)CC1` (centres unmarked) [Example 207, 1-(4-(2-furyl)phenyl)-4-(4-(1,3-thiazol-2-ylcarbonyl)piperazin-1-yl)pyrrolidin-2-one], the inhibition at 10 µM amounted to 97%.

For `Cc1cccc(-c2ccc(N3CC(N4CCN(C(=O)c5nccs5)CC4)CC3=O)cc2)c1` (centres unmarked) [Example 208], the inhibition at 10 µM was determined as 101%.

Consider `N#Cc1ccccc1-c1ccc(N2CC(N3CCN(C(=O)c4nccs4)CC3)CC2=O)cc1` (centres unmarked) [Example 209, 4′-(2-oxo-4-(4-(1,3-thiazol-2-ylcarbonyl)piperazin-1-yl)pyrrolidin-1-yl)biphenyl-2-carbonitrile], for which the inhibition at 10 µM stood at 96%.

With `N#Cc1ccc(-c2ccc(N3CC(N4CCN(C(=O)c5nccs5)CC4)CC3=O)cc2)cc1` (centres unmarked) [Example 210, 4′-(2-oxo-4-(4-(1,3-thiazol-2-ylcarbonyl)piperazin-1-yl)pyrrolidin-1-yl)biphenyl-4-carbonitrile], the inhibition at 10 µM was determined as 91%.

As for `O=C(c1nccs1)N1CCN(C2CC(=O)N(c3ccc(-c4cnn5ccccc45)cc3)C2)CC1` (centres unmarked) [Example 212, 1-(4-(pyrazolo[1,5-a]pyridin-3-yl)phenyl)-4-(4-(1,3-thiazol-2-ylcarbonyl)piperazin-1-yl)pyrrolidin-2-one], the inhibition at 10 µM was 100%.

For the molecule `O=C(c1nccs1)N1CCN(C2CC(=O)N(c3ccc(-c4ccccc4)cc3)C2)CC1` (centres unmarked) [Example 213, 1-(biphenyl-4-yl)-4-(4-(1,3-thiazol-2-ylcarbonyl)piperazin-1-yl)pyrrolidin-2-one], the inhibition at 10 µM came to 100%.

For `NC(=O)Cc1cccc(-c2ccc(N3CC(N4CCN(C(=O)c5nccs5)CC4)CC3=O)cc2)c1` (centres unmarked) [Example 214, 2-(4′-(2-oxo-4-(4-(1,3-thiazol-2-ylcarbonyl)piperazin-1-yl)pyrrolidin-1-yl)biphenyl-3-yl)acetamide], the inhibition at 10 µM stood at 93%.

For `O=C(c1nccs1)N1CCN(C2CC(=O)N(c3ccc(-c4ccccc4C(F)(F)F)cc3)C2)CC1` (centres unmarked) [Example 215, 4-(4-(1,3-thiazol-2-ylcarbonyl)piperazin-1-yl)-1-(2′-(trifluoromethyl)biphenyl-4-yl)pyrrolidin-2-one], the inhibition at 10 µM stood at 101%.

As to `CS(=O)(=O)Nc1cccc(-c2ccc(N3CC(N4CCN(C(=O)c5nccs5)CC4)CC3=O)cc2)c1` (centres unmarked) [Example 216, N-(4′-(2-oxo-4-(4-(1,3-thiazol-2-ylcarbonyl)piperazin-1-yl)pyrrolidin-1-yl)biphenyl-3-yl)methanesulfonamide], the inhibition at 10 µM turned out to be 97%.

Regarding `O=C(c1nccs1)N1CCN(C2CC(=O)N(c3ccc(-c4ccsc4)cc3)C2)CC1` (centres unmarked) [Example 217, 4-(4-(1,3-thiazol-2-ylcarbonyl)piperazin-1-yl)-1-(4-(3-thienyl)phenyl)pyrrolidin-2-one], the inhibition at 10 µM is 98%.

As for `O=C(c1nccs1)N1CCN(C2CC(=O)N(c3ccc(-c4cccs4)cc3)C2)CC1` (centres unmarked) [Example 218, 4-(4-(1,3-thiazol-2-ylcarbonyl)piperazin-1-yl)-1-(4-(2-thienyl)phenyl)pyrrolidin-2-one], the inhibition at 10 µM turned out to be 99%.

`Cc1ccc(-c2ccc(N3CC(N4CCN(C(=O)c5nccs5)CC4)CC3=O)cc2)cc1` (centres unmarked) [Example 219, 1-(4′-methylbiphenyl-4-yl)-4-(4-(1,3-thiazol-2-ylcarbonyl)piperazin-1-yl)pyrrolidin-2-one]: the inhibition at 10 µM was 102%.

`Cc1ccccc1-c1cccc(N2CC(N3CCN(C(=O)c4cscn4)CC3)CC2=O)c1` (centres unmarked) [Example 220, 1-(2′-methylbiphenyl-3-yl)-4-(4-(1,3-thiazol-4-ylcarbonyl)piperazin-1-yl)pyrrolidin-2-one]: the inhibition at 10 µM was determined as 103%.

`Cc1ccccc1-c1cccc(N2CC(N3CCN(C(=O)c4ncco4)CC3)CC2=O)c1` (centres unmarked) [Example 221, 1-(2′-methylbiphenyl-3-yl)-4-(4-(1,3-oxazol-2-ylcarbonyl)piperazin-1-yl)pyrrolidin-2-one]: the inhibition at 10 µM stood at 101%.

In the case of `O=C1Cc2cccc(-c3cccc(N4CC(N5CCN(C(=O)c6nccs6)CC5)CC4=O)c3)c2N1` (centres unmarked) [Example 222, 7-(3-(2-oxo-4-(4-(1,3-thiazol-2-ylcarbonyl)piperazin-1-yl)pyrrolidin-1-yl)phenyl)-1,3-dihydro-2H-indol-2-one], the inhibition at 10 µM is 98%.

As to `O=C(c1cscn1)N1CCN(C2CC(=O)N(c3cccc(-c4cccnc4Cl)c3)C2)CC1` (centres unmarked) [Example 223, 1-(3-(2-chloropyridin-3-yl)phenyl)-4-(4-(1,3-thiazol-4-ylcarbonyl)piperazin-1-yl)pyrrolidin-2-one], the inhibition at 10 µM is 101%.

In the case of `O=C(c1ncco1)N1CCN(C2CC(=O)N(c3cccc(-c4cccnc4Cl)c3)C2)CC1` (centres unmarked) [Example 224, 1-(3-(2-chloropyridin-3-yl)phenyl)-4-(4-(1,3-oxazol-2-ylcarbonyl)piperazin-1-yl)pyrrolidin-2-one], the inhibition at 10 µM came to 100%.

For `CC1C(N2CCN(C(=O)c3nccs3)CC2)CC(=O)N1c1ccc(Oc2ccccc2)cc1` (centres unmarked) [Example 228, 5-Methyl-1-(4-phenoxyphenyl)-4-(4-(1,3-thiazol-2-ylcarbonyl)piperazin-1-yl)pyrrolidin-2-one], the inhibition at 10 µM came out at 96%.

For the molecule `CN1C(=O)Cc2cccc(-c3cccc(N4CC(N5CCN(C(=O)c6nccs6)CC5)CC4=O)c3)c21` (centres unmarked) [Example 229, 1-methyl-7-(3-(2-oxo-4-(4-(1,3-thiazol-2-ylcarbonyl)piperazin-1-yl)pyrrolidin-1-yl)phenyl)-1,3-dihydro-2H-indol-2-one], the inhibition at 10 µM was 100%.

`CN1C(=O)Cc2c(-c3cccc(N4CC(N5CCN(C(=O)c6nccs6)CC5)CC4=O)c3)cccc21` (centres unmarked) [Example 230, 1-methyl-4-(3-(2-oxo-4-(4-(1,3-thiazol-2-ylcarbonyl)piperazin-1-yl)pyrrolidin-1-yl)phenyl)-1,3-dihydro-2H-indol-2-one]: the inhibition at 10 µM came out at 101%.

For `CC1(C)C(=O)Nc2cccc(-c3cccc(N4CC(N5CCN(C(=O)c6nccs6)CC5)CC4=O)c3)c21` (centres unmarked) [Example 231, 3,3-dimethyl-4-(3-(2-oxo-4-(4-(1,3-thiazol-2-ylcarbonyl)piperazin-1-yl)pyrrolidin-1-yl)phenyl)-1,3-dihydro-2H-indol-2-one], the inhibition at 10 µM is 100%.

As to `O=C(c1cscn1)N1CCN(C2CC(=O)N(c3cccc(-c4ccccc4Cl)c3)C2)CC1` (stereo not drawn) [Example 232, 1-(2′-Chlorobiphenyl-3-yl)-4-(4-(1,3-thiazol-4-ylcarbonyl)piperazin-1-yl)pyrrolidin-2-one (optical isomer)], the inhibition at 10 µM was found to be 99%.

Regarding `O=C(c1nccs1)N1CCN([C@@H]2CC(=O)N(c3ccc4c(ccn4-c4ccc(C(F)(F)F)nn4)c3)C2)CC1` [Example 234, (4R)-4-(4-(1,3-thiazol-2-ylcarbonyl)piperazin-1-yl)-1-(1-(6-(trifluoromethyl)pyridazin-3-yl)-1H-indol-5-yl)pyrrolidin-2-one], the inhibition at 10 µM was 98%.

For `Cc1ccc(-n2ccc3cc(N4CC(N5CCN(C(=O)c6nccs6)CC5)CC4=O)ccc32)cc1` (centres unmarked) [Example 235, 1-(1-(4-methylphenyl)-1H-indol-5-yl)-4-(4-(1,3-thiazol-2-ylcarbonyl)piperazin-1-yl)pyrrolidin-2-one], the inhibition at 10 µM is 100%.

In the case of `Cc1cccc(-n2ccc3cc(N4CC(N5CCN(C(=O)c6nccs6)CC5)CC4=O)ccc32)n1` (centres unmarked) [Example 238, 1-(1-(6-methylpyridin-2-yl)-1H-indol-5-yl)-4-(4-(1,3-thiazol-2-ylcarbonyl)piperazin-1-yl)pyrrolidin-2-one], the inhibition at 10 µM stood at 100%.

Consider `Cc1ccc(-n2ccc3cc(N4CC(N5CCN(C(=O)c6nccs6)CC5)CC4=O)ccc32)nc1` (centres unmarked) [Example 239, 1-(1-(5-methylpyridin-2-yl)-1H-indol-5-yl)-4-(4-(1,3-thiazol-2-ylcarbonyl)piperazin-1-yl)pyrrolidin-2-one], for which the inhibition at 10 µM stood at 100%.

Turning to `Cc1cc(-c2ccccc2)cc(N2CC(N3CCN(C(=O)c4nccs4)CC3)CC2=O)c1` (centres unmarked) [Example 240, 1-(5-methylbiphenyl-3-yl)-4-(4-(1,3-thiazol-2-ylcarbonyl)piperazin-1-yl)pyrrolidin-2-one], the inhibition at 10 µM stood at 99%.

As for `O=C(c1nccs1)N1CCN(C2CC(=O)N(c3cc(-c4ccccc4)ccc3F)C2)CC1` (centres unmarked) [Example 241, 1-(4-fluorobiphenyl-3-yl)-4-(4-(1,3-thiazol-2-ylcarbonyl)piperazin-1-yl)pyrrolidin-2-one], the inhibition at 10 µM turned out to be 96%.

In the case of `O=C(c1nccs1)N1CCN(C2CC(=O)N(c3cc(F)cc(-c4ccccc4)c3)C2)CC1` (centres unmarked) [Example 242, 1-(5-fluorobiphenyl-3-yl)-4-(4-(1,3-thiazol-2-ylcarbonyl)piperazin-1-yl)pyrrolidin-2-one], the inhibition at 10 µM amounted to 99%.

Regarding `O=C(c1nccs1)N1CCN(C2CC(=O)N(c3ccc(F)c(-c4ccccc4)c3)C2)CC1` (centres unmarked) [Example 243, 1-(6-fluorobiphenyl-3-yl)-4-(4-(1,3-thiazol-2-ylcarbonyl)piperazin-1-yl)pyrrolidin-2-one], the inhibition at 10 µM was 100%.

For `O=C(c1nccs1)N1CCN(C2CC(=O)N(c3cccc(-c4ccccc4)c3F)C2)CC1` (centres unmarked) [Example 244, 1-(2-fluorobiphenyl-3-yl)-4-(4-(1,3-thiazol-2-ylcarbonyl)piperazin-1-yl)pyrrolidin-2-one], the inhibition at 10 µM turned out to be 98%.

Values taken from patent publication US9624170B2, “4-(piperrazin-1-yl)-pyrrolidin-2-one compounds as monoacylglycerol lipase (MAGL) inhibitors” (TAKEDA PHARMACEUTICAL COMPANY LIMITED, priority 2013, dated 2017).
